Reference: US12144506B2, “Methods for aneurysm treatment” (Nectero Medical, Inc., priority 2018, dated 2024)

Assay: safe delivery concentration of PGG as a function of its purity
Conditions: PGG of the stated purity; toxic impurities gallic acid and methyl gallate
Description: The concentrations of PGG which may be safely delivered to a patient may be generally proportional to the purity of the PGG. For example, gallic acid, depicted in FIG. 1B, and methyl gallate, depicted in FIG. 1C, are common cytotoxic impurities which may be removed from a source batch of PGG during the purification process. Eliminating the presence of or reducing the concentration of toxic impurities from the delivered PGG may allow higher concentrations of the PGG to be delivered due to the mitigation of the toxic side effects of impurities commonly found in isolated PGG. For instance, studies have shown that substantially 100% pure PGG may be safely delivered at concentrations up to approximately 0.330% (w/v), 95% pure PGG may be safely delivered at concentrations up to approximately 0.125% (w/v), and 85% pure PGG may be safely delivered at concentrations up to approximately 0.06% (w/v). Delivery of PGG in higher concentrations may enhance the amount of uptake of PGG by the target tissue which may increase the efficacy of the PGG treatment. Delivery of PGG in higher concentrations may increase the rate of uptake of PGG by the tissue allowing the same amount of uptake in shorter delivery times. […]

| Substance | concentration up to which PGG may be safely delivered |
| --- | --- |
| 1,2,3,4,6-pentagalloyl glucose [85% pure PGG] | ≤ 0.06 % (w/v) |
| 1,2,3,4,6-pentagalloyl glucose [substantially 100% pure PGG] | ≤ 0.330 % (w/v) |
